Measured values as given in patent publication US20190204402A1, “METHOD FOR POST-PROCESSING MRI IMAGES TO OBTAIN HEPATIC PERFUSION AND TRANSPORT PARAMETERS” (INSERM (INSTITUT NATIONAL DE LA SANTE DE LA RECHERCHE …, priority 2016, published 2019).
Several values for one entry are separate records, joined by “and”; a condition that tells them apart may be missing. Identical values can stand only once.

System: liver of patients with chronic liver diseases
Experiment: Dynamic gadoxetate-enhanced MR imaging with dual-input three-compartment pharmacokinetic model, patients with chronic liver diseases
Assay type: in vivo, human
Protocol: The feasibility of the method was evaluated in a prospective study with liver biopsy as a gold standard on patients with liver chronic liver diseases. The institutional ethics committee approved the protocol and informed consent was obtained from each subject. Twenty-one consecutive patients (4 women, 17 men; mean age, 51.0±10.2 years) who were suspected of having chronic liver disease on clinical and biological data underwent in the same period liver biopsy and MR imaging. Mean delay between MR imaging and liver biopsy was 2.5 days (range: 0-20 days). All subjects were fasting during six hours before MR imaging. Exclusion criteria were the usual contra-indications for MR imaging.
Percutaneous liver biopsy was performed with a 1.4-mm-diameter needle (Hepafix; Braun, Melsungen, Germany). In 6 patients with ascites and/or trouble of blood crasis, liver biopsy was performed through a transjugular approach using a catheter needle with a diameter of 1.1 mm (Cook Bloomington, Ind., USA). The liver samples were fixed in buffered formalin and embedded in paraffin. Sections, 4 μm thick, were stained with hematoxylin-eosin and Masson trichrome and assessed by a pathologist blinded to the clinical data and to the results of MR imaging. The stage of fibrosis from F0 to F4 was evaluated semiquantitatively on Masson trichrome-stained slides according to the METAVIR staging system. For further analysis of fibrosis severity, a three-level staging of fibrosis was used (F0-F1: minimal fibrosis, F2-F3: intermediate fibrosis, and F4: cirrhosis). Moreover, patients with F≥2 were considered having significant fibrosis.
MR imaging was performed on a Siemens Skyra 3.0 T system (Siemens Medical Solutions, Erlangen, Germany). […] The signal was collected with the 32-channel phased array body and the spine coils.
Gadoxetate (Primovist, Bayer, Berlin, Germany) was injected intravenously using an automatic injector (Medrad Spectris Solaris, Warrendale, PA) with an injection rate of 1 mL·s^-1 and flushed with physiologic saline (same volume and injection rate). The gadoxetate dose was 0.025 mmol·kg^-1.
Dynamic liver imaging was started simultaneously with the intravenous injection of gadoxetate and was performed in free breathing.
To do this, pauses were added between dynamics as follow: for the 280 first dynamics: no pause, the effective temporal resolution was 2.1 s; for the next 150 dynamics: 5 s pause, the effective temporal resolution was 7.1 s, for the 60 last dynamics; 8 s pause, the effective temporal resolution was 10.1 s. Dynamic acquisition duration was close to 38 minutes.
To simultaneously quantify hepatic micro-perfusion and function transport parameters, a model was developed. In the liver, the quantity of gadoxetate Q between τ and τ+dτ can be expressed as the difference between incoming Qin and outgoing gadoxetate quantities Qout. This means that:
To express R(t) with kinetic indices kij, the liver is modeled with a model according to which the liver is a dual input three compartments. The three compartments are the extracellular compartment, the hepatocyte compartment and the intrahepatic bile ducts. The extracellular compartment comprises the intravascular compartment and the Disse space's.
From the motion corrected dynamic frames, arterial and portal input were recorded with freehand regions of interest (ROI) drawn in the abdominal aorta and the portal vein respectively. Tissue response was measured from a ROI placed in the right hepatic lobe anterior segment (segments V-VIII) and the right lobe posterior segment (segments VI-VII), two large ROIs covering an extended region without visible large vessels were drawn on three central slices. For inputs function and tissue response, signal intensity was converted into relative gadoxetate concentration as follows:
To convert blood concentration into plasma concentration, the input functions were normalized by one minus hematocrit. A hematocrit of 45% was assumed in this study. […]

[1] = intermediate fibrosis (F2-F3), n = 8
[2] = minimal fibrosis (F0-F1), n = 9

Biliary efflux (cirrhosis (F4), n = 4): 0.31±0.57 mL · min^−1 · 100 g^−1
E (hepatocyte uptake fraction) (cirrhosis (F4), n = 4): 3.4±2.5%
MTT (extracellular mean transit time) (cirrhosis (F4), n = 4): 30.1 ± 12.5 s and 29.7 ± 9.7 s
Sinusoidal backflux (cirrhosis (F4), n = 4): 0.0012±0.002 mL · min^−1 · 100 g^−1
Ve (extracellular volume) (cirrhosis (F4), n = 4): 30.1 ± 12.5%
Biliary efflux [1]: 1.5±0.5 mL · min^−1 · 100 g^−1
E (hepatocyte uptake fraction) [1]: 8.7±3.1%
MTT (extracellular mean transit time) [1]: 14.1 ± 3.9 s
Sinusoidal backflux [1]: 0.021 ± 0.013 mL · min^−1 · 100 g^−1
Ve (extracellular volume) [1]: 21.8 ± 6.5%
Biliary efflux [2]: 3.2±1.0 mL · min^−1 · 100 g^−1
E (hepatocyte uptake fraction) [2]: 12.0±3.8%
MTT (extracellular mean transit time) [2]: 15.0 ± 5.0 s
Sinusoidal backflux [2]: 0.035±0.012 mL · min^−1 · 100 g^−1
Ve (extracellular volume) [2]: 20.8 ± 6.2%
k3 (biliary efflux), parametric map (single F0 patient, FIG. 13): 3.53 mL·min^-1·100 g^-1
k3 (biliary efflux), parametric map (single F1 patient, FIG. 14): 3.67 mL·min^-1·100 g^-1
k3 (biliary efflux), parametric map (single F2 patient, FIG. 15): 2.23 mL·min^-1·100 g^-1
k3 (biliary efflux), parametric map (single F3 patient, FIG. 16): 1.64 mL·min^-1·100 g^-1
SMILES: CCOc1ccc(C[C@@H](CN(CCN(CC(=O)[O-])CC(=O)[O-])CC(=O)[O-])N(CC(=O)[O-])CC(=O)[O-])cc1.[Gd+3].[H+].[H+] [gadoxetate]
